Reference: patent US10722501B2 (BAYER AKTIENGESELLSCHAFT, priority 2016, dated 2020)

target: T1, recombinant full-length human prolyl endopeptidase (PREP) (Homo sapiens, UniProt P48147); test: Biochemical human prolyl endopeptidase (PREP) assay with fluorescently labelled substrate; settings: substrate Z-Gly-Pro-AMC 50 μM, 32° C., 60 min; some as mean values from multiple independent determinations
T1 construct: To recombinant full-length human prolyl endopeptidase (PREP, R&D-Systems, 4308-SE); purchased R&D-Systems 4308-SE
T1 sequence (P48147 1-710): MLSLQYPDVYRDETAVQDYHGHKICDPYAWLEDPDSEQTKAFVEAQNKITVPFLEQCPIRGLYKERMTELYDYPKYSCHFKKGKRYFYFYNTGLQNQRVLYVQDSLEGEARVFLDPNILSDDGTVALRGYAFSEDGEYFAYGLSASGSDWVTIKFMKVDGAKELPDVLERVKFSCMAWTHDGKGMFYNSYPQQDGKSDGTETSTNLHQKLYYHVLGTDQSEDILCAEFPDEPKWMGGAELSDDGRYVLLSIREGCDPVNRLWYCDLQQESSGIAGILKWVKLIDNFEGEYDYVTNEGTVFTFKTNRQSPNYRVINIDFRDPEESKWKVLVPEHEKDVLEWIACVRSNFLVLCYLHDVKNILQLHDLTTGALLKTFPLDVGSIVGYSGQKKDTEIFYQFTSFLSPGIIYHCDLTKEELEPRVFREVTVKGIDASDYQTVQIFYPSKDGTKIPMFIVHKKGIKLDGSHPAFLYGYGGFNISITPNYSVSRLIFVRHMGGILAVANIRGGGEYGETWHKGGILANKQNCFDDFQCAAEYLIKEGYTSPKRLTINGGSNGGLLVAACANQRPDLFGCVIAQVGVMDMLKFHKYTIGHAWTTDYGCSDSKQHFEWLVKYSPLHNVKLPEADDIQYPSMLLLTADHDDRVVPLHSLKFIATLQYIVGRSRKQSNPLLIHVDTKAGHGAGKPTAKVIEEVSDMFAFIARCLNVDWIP
Summary of the method: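 Initial rates of fluorescence increase from 50 μM Z-Gly-Pro-AMC cleavage (ex 360/em 465 nm, 60 min, 32° C) give percent PREP activity versus no-compound control, and IC50 is interpolated. Enzyme used at 0.4 nM (final, example) in Tris pH 7.5 with EDTA, GSH, BSA and Brij-35; compounds span 1 nM to 30 μM.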

Structure (SMILES)	IC50 [nM]
O=C([C@@H]1CCCc2nn(Cc3ccc(C(F)(F)F)c(Cl)c3)c(=O)n21)N1CC(F)C1 [Example 459, (5S)-2-[3-Chloro-4-(trifluoromethyl)benzyl]-5-[(3-fluoroazetidin-1-yl)carbonyl]-5,6,7,8-tetrahydro[1,2,4]triazolo[4,3-a]pyridin-3(2H)-one]	0.2
CC(c1ccc(C(F)(F)F)nc1)n1nc2n(c1=O)[C@H](C(=O)N1C[C@@H](F)[C@@H](F)C1)CCC2 (single isomer, unassigned) [Example 218]	3.3
O=C(C1CCc2nn(Cc3ccc(C(F)(F)F)nc3)c(=O)n21)N1CC(F)C1 (racemic) [Example 170, (5RS)-5-[(3-Fluoroazetidin-1-yl)carbonyl]-2-{[6-(trifluoromethyl)pyridin-3-yl]methyl}-2,5,6,7-tetrahydro-3H-pyrrolo[2,1-c][1,2,4]triazol-3-one]	90
O=C(C1CC(C(F)(F)F)Cc2nn(Cc3ccc(C(F)(F)F)nc3)c(=O)n21)N1CC(F)C(F)C1 (single isomer, unassigned) [Example 583]	970
O=C(C1CCC(C(F)(F)F)c2nn(Cc3ncccc3F)c(=O)n21)N1C[C@@H](F)[C@@H](F)C1 (mixture of isomers) [Example 274, (5RS,8RS)-5-{[(3R,4S)-3,4-Difluoropyrrolidin-1-yl]carbonyl}-2-[(3-fluoropyridin-2-yl)methyl]-8-(trifluoromethyl)-5,6,7,8-tetrahydro[1,2,4]triazolo[4,3-a]pyridin-3(2H)-one]	5.9
O=C([C@@H]1CCCc2nn(Cc3ccc(C(F)(F)F)c(F)c3)c(=O)n21)N1CC[C@H](F)C1 [Example 471, (5S)-5-{[(3S)-3-Fluoropyrrolidin-1-yl]carbonyl}-2-[3-fluoro-4-(trifluoromethyl)benzyl]-5,6,7,8-tetrahydro[1,2,4]triazolo[4,3-a]pyridin-3(2H)-one]	0.425
Cc1ccc(Cn2nc3n(c2=O)[C@H](C(=O)N2C[C@@H](O)[C@H](F)C2)CCC3)cc1 [Example 183, (5S)-5-{[(3R,4R)-3-Fluoro-4-hydroxypyrrolidin-1-yl]carbonyl}-2-(4-methylbenzyl)-5,6,7,8-tetrahydro[1,2,4]triazolo[4,3-a]pyridin-3(2H)-one]	109
Cc1ccc(Cn2nc3n(c2=O)[C@H](C(=O)N2CCC[C@H]2C=O)CCC3)cc1 [Example 196, (2S)-1-{[(5S)-2-(4-Methylbenzyl)-3-oxo-2,3,5,6,7,8-hexahydro[1,2,4]triazolo[4,3-a]pyridin-5-yl]carbonyl}pyrrolidine-2-carbaldehyde]	0.4
Cc1ccc(Cn2nc3n(c2=O)[C@H](C(=O)N2CC[C@H](F)C2)CCC3)cc1 [Example 110, (5S)-5-{[(3S)-3-Fluoropyrrolidin-1-yl]carbonyl}-2-(4-methylbenzyl)-5,6,7,8-tetrahydro[1,2,4]triazolo[4,3-a]pyridin-3(2H)-one]	0.32
O=C([C@@H]1CCCc2nn(Cc3cc(F)c(F)cc3F)c(=O)n21)N1CC(F)C1 [Example 491, (5S)-5-[(3-Fluoroazetidin-1-yl)carbonyl]-2-(2,4,5-trifluorobenzyl)-5,6,7,8-tetrahydro[1,2,4]triazolo[4,3-a]pyridin-3(2H)-one]	0.44
CC1Cc2nn(Cc3ccc(C(F)(F)F)nc3)c(=O)n2C(C(=O)N2C[C@@H](F)[C@@H](F)C2)C1 (single isomer, unassigned) [Example 338]	1.5
O=C(C1CC(C(F)(F)F)Cc2nn(Cc3ccc(Cl)nc3)c(=O)n21)N1C[C@@H](F)[C@@H](F)C1 (single isomer, unassigned) [Example 250]	0.92
CC1CCC(C(=O)N2C[C@@H](F)[C@@H](F)C2)n2c1nn(Cc1ccc(C(F)(F)F)nc1)c2=O (mixture of isomers) [Example 325, (5RS,8RS)-5-{[(3R,4S)-3,4-Difluoropyrrolidin-1-yl]carbonyl}-8-methyl-2-{[6-(trifluoromethyl)pyridin-3-yl]methyl}-5,6,7,8-tetrahydro[1,2,4]triazolo[4,3-a]pyridin-3(2H)-one]	1.5
O=C([C@@H]1CCCc2nn(Cc3nc(C(F)(F)F)no3)c(=O)n21)N1CC(F)(F)C1 [Example 499, (5S)-5-[(3,3-Difluoroazetidin-1-yl)carbonyl]-2-{[3-(trifluoromethyl)-1,2,4-oxadiazol-5-yl]methyl}-5,6,7,8-tetrahydro[1,2,4]triazolo[4,3-a]pyridin-3(2H)-one]	110
Cc1ccc(Cn2nc3n(c2=O)C(C(=O)N2CC(=O)C2)CCC3)cc1 (racemic) [Example 133, (5RS)-2-(4-Methylbenzyl)-5-[(3-oxoazetidin-1-yl)carbonyl]-5,6,7,8-tetrahydro[1,2,4]triazolo[4,3-a]pyridin-3(2H)-one]	145
O=C(C1CCc2nn(Cc3ccc(C(F)(F)F)nc3)c(=O)n21)N1CC[C@H](F)C1 (mixture of isomers) [Example 164, (5RS)-5-{[(3S)-3-Fluoropyrrolidin-1-yl]carbonyl}-2-{[6-(trifluoromethyl)pyridin-3-yl]methyl}-2,5,6,7-tetrahydro-3H-pyrrolo[2,1-c][1,2,4]triazol-3-one]	3.7
O=C([C@@H]1CCCc2nn(Cc3ccc(F)c(C(F)(F)F)c3)c(=O)n21)N1CC(O)C1 [Example 449, (5S)-2-[4-Fluoro-3-(trifluoromethyl)benzyl]-5-[(3-hydroxyazetidin-1-yl)carbonyl]-5,6,7,8-tetrahydro[1,2,4]triazolo[4,3-a]pyridin-3(2H)-one]	5.55
O=C([C@@H]1CCCc2nn(Cc3ncc(C(F)(F)F)cc3Cl)c(=O)n21)N1CCCC1 [Example 106, (5S)-2-{[3-Chloro-5-(trifluoromethyl)pyridin-2-yl]methyl}-5-(pyrrolidin-1-ylcarbonyl)-5,6,7,8-tetrahydro[1,2,4]triazolo[4,3-a]pyridin-3(2H)-one]	1.7
CC1Cc2nn(Cc3ccc(C(F)(F)F)nc3)c(=O)n2C(C(=O)N2CC[C@H](F)C2)C1 (single isomer, unassigned) [Example 137]	130
O=C([C@@H]1CCCc2nn(CC3(c4ccc(F)cc4)CC3)c(=O)n21)N1CC[C@H](F)C1 [Example 352, (5S)-2-{[1-(4-Fluorophenyl)cyclopropyl]methyl}-5-{[(3S)-3-fluoropyrrolidin-1-yl]carbonyl}-5,6,7,8-tetrahydro[1,2,4]triazolo[4,3-a]pyridin-3(2H)-one]	0.32
O=C([C@@H]1CCCc2nn(Cc3ccc(Br)cc3F)c(=O)n21)N1CC[C@H](F)C1 [Example 214, (5S)-2-(4-Bromo-2-fluorobenzyl)-5-{[(3S)-3-fluoropyrrolidin-1-yl]carbonyl}-5,6,7,8-tetrahydro[1,2,4]triazolo[4,3-a]pyridin-3(2H)-one]	0.2
O=C(C1C(C(F)(F)F)CCc2nn(Cc3ccc(Cl)cn3)c(=O)n21)N1C[C@@H](F)[C@@H](F)C1 (mixture of isomers) [Example 300, (5RS,6RS)-2-[(5-Chloropyridin-2-yl)methyl]-5-{[(3R,4S)-3,4-difluoropyrrolidin-1-yl]carbonyl}-6-(trifluoromethyl)-5,6,7,8-tetrahydro[1,2,4]triazolo[4,3-a]pyridin-3(2H)-one]	19
Cc1ccc(Cn2nc3n(c2=O)C(C(=O)N2CCC(=O)C2)CCC3)cc1 (racemic) [Example 118, (5RS)-2-(4-Methylbenzyl)-5-[(3-oxopyrrolidin-1-yl)carbonyl]-5,6,7,8-tetrahydro[1,2,4]triazolo[4,3-a]pyridin-3(2H)-one]	5.6
O=C([C@@H]1CCCc2nn(Cc3nnc(C(F)(F)F)o3)c(=O)n21)N1CC(F)C1 [Example 542, (5S)-5-[(3-Fluoroazetidin-1-yl)carbonyl]-2-{[5-(trifluoromethyl)-1,3,4-oxadiazol-2-yl]methyl}-5,6,7,8-tetrahydro[1,2,4]triazolo[4,3-a]pyridin-3(2H)-one]	94
CC1CCC(C(=O)N2CC(F)C2)n2c1nn(Cc1ccc(F)c(Cl)c1)c2=O (racemic) [Example 321, (5RS,8RS)-2-(3-Chloro-4-fluorobenzyl)-5-[(3-fluoroazetidin-1-yl)carbonyl]-8-methyl-5,6,7,8-tetrahydro[1,2,4]triazolo[4,3-a]pyridin-3(2H)-one]	0.93
CC(c1ccc(Cl)cc1)n1nc2n(c1=O)C(C(=O)N1CCCC1)CCC2 (racemic) [Example 3, (5RS)-2-[(1 RS)-1-(4-Chlorophenyl)ethyl]-5-(pyrrolidin-1-ylcarbonyl)-5,6,7,8-tetrahydro[1,2,4]triazolo[4,3-a]pyridin-3(2H)-one]	6
O=C([C@@H]1CCC(O)c2nn(Cc3ncc(F)cc3F)c(=O)n21)N1CC[C@H](F)C1 (mixture of isomers) [Example 585, (5S,8SR)-2-[(3,5-Difluoropyridin-2-yl)methyl]-5-{[(3S)-3-fluoropyrrolidin-1-yl]carbonyl}-8-hydroxy-5,6,7,8-tetrahydro[1,2,4]triazolo[4,3-a]pyridin-3(2H)-one]	0.43
